Test results as given in patent US7745495B2, “Pyridine ketones with herbicidal effect” (Syngenta Crop Protection, Inc., priority 2004, dated 2010).

Experiments:
Format in all cases: in vivo
Stellaria [1] = experiment: Pre-emergence herbicidal action; conditions: 250 g/ha; after 3 weeks; rating 10=total damage, 0=no action
Experimental: (§1) Monocotyledonous and dicotyledonous test plants are sown in standard soil in plastic pots. Immediately after sowing, the test compounds, in the form of an aqueous suspension (prepared from a 25% wettable powder (Example F3, b) according to WO 97/34485) or in the form of an emulsion (prepared from a 25% emulsifiable concentrate (Example F1, c)), are applied by spraying a concentration corresponding to 125 g or 250 g of active ingredient/ha (500 liter of water/ha). The test plants are then grown in a greenhouse under optimum conditions. After a test duration of 3 weeks, the test is evaluated in accordance with a scale of ten ratings (10=total damage, 0=no action). Ratings of from 10 to 7 (especially from 10 to 8) indicate good to very good herbicidal action.

Chenopodium [2] = experiment: Pre-emergence herbicidal action; conditions: 250 g/ha; after 3 weeks; rating 10=total damage, 0=no action
Experimental: as §1

Brachiaria = experiment: Pre-emergent herbicidal activity; conditions: rating 10=total damage, 0=no action
Experimental: (§2) Monocotyledonous and dicotyledonous test plants are sown in standard soil in plastic pots. […] The test plants are then grown in a greenhouse under optimum conditions. After a test duration of 3 weeks, the test is evaluated in accordance with a scale of ten ratings (10=total damage, 0=no action). Ratings of from 10 to 7 (especially from 10 to 8) indicate good to very good herbicidal action.
(§3) In the following Table B3, the pre-emergent herbicidal activity of compound H-14 according to the invention is compared with 4 compounds according to the prior art. All compounds are structurally identical except for the nature of the alkylene linker attached to the pyridine ring.

Scirpus = experiment: Pre-emergent herbicidal activity; conditions: Table B5, rating 10=total damage, 0=no action
Experimental: as §2
In the following Table B5, the pre-emergent herbicidal activity of compound H-9 according to the invention is compared with compound E according to the prior art. Both compounds are structurally identical except for the length of the alkylene linker attached to the pyridine ring.

Panicum [3] = experiment: Pre-emergence herbicidal action; conditions: rating 10=total damage, 0=no action; for Pre-emergence herbicidal action: Panicum: 250 g/ha, after 3 weeks; for Pre-emergent Herbicidal Activity: Panicum: Table B4
Experimental: as §2

Abutilon [4] = experiment: Pre-emergence herbicidal action; conditions: rating 10=total damage, 0=no action; for Pre-emergence herbicidal action: Abutilon: 250 g/ha, after 3 weeks
Experimental: as §2

Echinochloa = experiment: Pre-emergence herbicidal action; conditions: rating 10=total damage, 0=no action; for Pre-emergence herbicidal action: Echinochloa: 250 g/ha, after 3 weeks
Experimental: as §2

Amaranthus = experiment: Pre-emergence herbicidal action; conditions: rating 10=total damage, 0=no action; for Pre-emergence herbicidal action: Amaranthus: 250 g/ha, after 3 weeks
Experimental: as §2

Digitaria [5] = experiment: Pre-emergence herbicidal action; conditions: rating 10=total damage, 0=no action; for Pre-emergence herbicidal action: Digitaria: 250 g/ha, after 3 weeks
Experimental: as §2

Stellaria [6] = experiment: Post-emergence herbicidal action; conditions: 250 g/ha; 4- to 6-leaf stage; after about 18 days; rating 10=total damage, 0=no action
Experimental: (§4) In a greenhouse, monocotyledonous and dicotyledonous test plants are grown in standard soil in plastic pots and at the 4- to 6-leaf stage are sprayed with an aqueous suspension of the test compounds of formula I prepared from a 25% wettable powder (Example F3, b) according to WO 97/34485) or with an emulsion of the test compounds of formula I prepared from a 25% emulsifiable concentrate (Example F1, c) according to WO 97/34485), in a concentration corresponding to 125 g or 250 g of active ingredient/ha (500 liter of water/ha). The test plants are then grown on in a greenhouse under optimum conditions. After a test duration of about 18 days, the test is evaluated in accordance with a scale of ten ratings (10=total damage, 0=no action). Ratings of from 10 to 7 (especially from 10 to 8) indicate good to very good herbicidal action.

Ipomea = experiment: Post-emergence herbicidal action; conditions: 250 g/ha; 4- to 6-leaf stage; after about 18 days; rating 10=total damage, 0=no action
Experimental: as §4

Panicum [7] = experiment: Post-emergence herbicidal action; conditions: 250 g/ha; 4- to 6-leaf stage; after about 18 days; rating 10=total damage, 0=no action
Experimental: as §4

Abutilon [8] = experiment: Post-emergence herbicidal action; conditions: 250 g/ha; 4- to 6-leaf stage; after about 18 days; rating 10=total damage, 0=no action
Experimental: as §4

Setaria [9] = experiment: Post-emergence herbicidal action; conditions: 250 g/ha; 4- to 6-leaf stage; after about 18 days; rating 10=total damage, 0=no action
Experimental: as §4

Sinapis = experiment: Post-emergence herbicidal action; conditions: 250 g/ha; 4- to 6-leaf stage; after about 18 days; rating 10=total damage, 0=no action
Experimental: as §4

Digitaria [10] = experiment: Post-emergence herbicidal action; conditions: 250 g/ha; 4- to 6-leaf stage; after about 18 days; rating 10=total damage, 0=no action
Experimental: as §4

Chenopodium [11] = experiment: Post-emergence herbicidal action; conditions: 250 g/ha; 4- to 6-leaf stage; after about 18 days; rating 10=total damage, 0=no action
Experimental: as §4

Corn = experiment: Pre-emergent herbicidal activity on crop plant; conditions: crop plant, rating 10=total damage, 0=no action; for Pre-emergent Herbicidal Activity: Mais: Table B5
Experimental: as §2, §3

Soya = experiment: Pre-emergent herbicidal activity on crop plant; conditions: crop plant, rating 10=total damage, 0=no action; for Pre-emergent Herbicidal Activity: Soja: Table B5
Experimental: as §2, §3

Xanthium = experiment: Pre-emergent herbicidal activity; conditions: Table B4, rating 10=total damage, 0=no action
Experimental: as §2
In the following Table B4, the pre-emergent herbicidal activity of compound H-3 according to the invention is compared with compound D according to the prior art. Both compounds are structurally identical except for the length of the alkylene linker attached to the pyridine ring.

Setaria [12] = experiment: Pre-emergent herbicidal activity; conditions: Table B3, rating 10=total damage, 0=no action
Experimental: as §2, §3

COCCCc1nc(C(F)(F)Cl)ccc1C(=O)C1C(=O)C2CCC(C2)C1=O (stereo not shown) [Compound H-9]
Pre-emergence herbicidal action: Stellaria (Stellaria [1]): 7 | Pre-emergence herbicidal action: Chenopodium (Chenopodium [2]): 9 | Pre-emergent Herbicidal Activity: Brachiaria (Brachiaria; Table B5, 30 g/ha): 9 | Pre-emergent Herbicidal Activity: Brachiaria (Brachiaria; Table B5, 60 g/ha): 9 | Pre-emergent Herbicidal Activity: Scirpus (Scirpus; 30 g/ha): 10 | Pre-emergent Herbicidal Activity: Scirpus (Scirpus; 60 g/ha): 10 | Pre-emergence herbicidal action: Panicum (Panicum [3]): 10 | Pre-emergence herbicidal action: Abutilon (Abutilon [4]): 10 | Pre-emergent Herbicidal Activity: Abutilon (Abutilon [4]; Table B5, 30 g/ha): 8 | Pre-emergent Herbicidal Activity: Abutilon (Abutilon [4]; Table B5, 60 g/ha): 9 | Pre-emergence herbicidal action: Echinochloa (Echinochloa): 10 | Pre-emergent Herbicidal Activity: Echinochloa (Echinochloa; Table B5, 30 g/ha): 9 | Pre-emergent Herbicidal Activity: Echinochloa (Echinochloa; Table B5, 60 g/ha): 10 | Pre-emergence herbicidal action: Amaranthus (Amaranthus): 9 | Pre-emergent Herbicidal Activity: Amaranthus (Amaranthus; Table B5, 30 g/ha): 8 | Pre-emergent Herbicidal Activity: Amaranthus (Amaranthus; Table B5, 60 g/ha): 8 | Pre-emergence herbicidal action: Digitaria (Digitaria [5]): 10 | Pre-emergent Herbicidal Activity: Digitaria (Digitaria [5]; Table B5, 30 g/ha): 8 | Pre-emergent Herbicidal Activity: Digitaria (Digitaria [5]; Table B5, 60 g/ha): 9 | Post-emergence herbicidal action: Stellaria (Stellaria [6]): 8 | Post-emergence herbicidal action: Ipomea (Ipomea): 9 | Post-emergence herbicidal action: Panicum (Panicum [7]): 9 | Post-emergence herbicidal action: Abutilon (Abutilon [8]): 9 | Post-emergence herbicidal action: Setaria (Setaria [9]): 9 | Post-emergence herbicidal action: Sinapis (Sinapis): 7 | Post-emergence herbicidal action: Digitaria (Digitaria [10]): 9 | Post-emergence herbicidal action: Chenopodium (Chenopodium [11]): 9 | Pre-emergent Herbicidal Activity: Mais (Corn; 30 g/ha): 0 | Pre-emergent Herbicidal Activity: Mais (Corn; 60 g/ha): 1 | Pre-emergent Herbicidal Activity: Soja (Soya; 30 g/ha): 0 | Pre-emergent Herbicidal Activity: Soja (Soya; 60 g/ha): 1

COCc1nc(C(F)F)ccc1C(=O)C1C(=O)C2CCC(C2)C1=O (stereo not shown) [D, reference compound]
Pre-emergent Herbicidal Activity: Panicum (Panicum [3]; 30 g/ha): 8 | Pre-emergent Herbicidal Activity: Panicum (Panicum [3]; 60 g/ha): 9 | Pre-emergent Herbicidal Activity: Abutilon (Abutilon [4]; Table B4, 30 g/ha): 6 | Pre-emergent Herbicidal Activity: Abutilon (Abutilon [4]; Table B4, 60 g/ha): 9 | Pre-emergent Herbicidal Activity: Echinochloa (Echinochloa; Table B4, 30 g/ha): 5 | Pre-emergent Herbicidal Activity: Echinochloa (Echinochloa; Table B4, 60 g/ha): 7 | Pre-emergent Herbicidal Activity: Amaranthus (Amaranthus; Table B4, 30 g/ha): 7 | Pre-emergent Herbicidal Activity: Amaranthus (Amaranthus; Table B4, 60 g/ha): 7 | Pre-emergent Herbicidal Activity: Digitaria (Digitaria [5]; Table B4, 30 g/ha): 7 | Pre-emergent Herbicidal Activity: Digitaria (Digitaria [5]; Table B4, 60 g/ha): 9 | Pre-emergent Herbicidal Activity: Corn (Corn; Table B4, 30 g/ha): 0 | Pre-emergent Herbicidal Activity: Corn (Corn; Table B4, 60 g/ha): 0 | Pre-emergent Herbicidal Activity: Soya (Soya; Table B4, 30 g/ha): 2 | Pre-emergent Herbicidal Activity: Soya (Soya; Table B4, 60 g/ha): 3 | Pre-emergent Herbicidal Activity: Xanthium (Xanthium; 30 g/ha): 0 | Pre-emergent Herbicidal Activity: Xanthium (Xanthium; 60 g/ha): 0

COCCCc1nc(C(F)(F)F)ccc1C(=O)C1C(=O)C2CCC(C2)C1=O (stereo not shown) [Compound H-14, 3-[6-trifluoromethyl-2-(3-methoxy-propyl)-pyridine-3-carbonyl]-bicyclo[3.2.1]octane-2,4-dione]
Pre-emergence herbicidal action: Stellaria (Stellaria [1]): 8 | Pre-emergence herbicidal action: Chenopodium (Chenopodium [2]): 10 | Pre-emergent Herbicidal Activity: Brachiaria (Brachiaria; Table B3, 15 g/ha): 7 | Pre-emergent Herbicidal Activity: Brachiaria (Brachiaria; Table B3, 30 g/ha): 8 | Pre-emergent Herbicidal Activity: Setaria (Setaria [12]; 15 g/ha): 9 | Pre-emergent Herbicidal Activity: Setaria (Setaria [12]; 30 g/ha): 10 | Pre-emergence herbicidal action: Panicum (Panicum [3]): 10 | Pre-emergence herbicidal action: Abutilon (Abutilon [4]): 10 | Pre-emergent Herbicidal Activity: Abutilon (Abutilon [4]; Table B3, 15 g/ha): 9 | Pre-emergent Herbicidal Activity: Abutilon (Abutilon [4]; Table B3, 30 g/ha): 10 | Pre-emergence herbicidal action: Echinochloa (Echinochloa): 10 | Pre-emergent Herbicidal Activity: Echinochloa (Echinochloa; Table B3, 15 g/ha): 9 | Pre-emergent Herbicidal Activity: Echinochloa (Echinochloa; Table B3, 30 g/ha): 10 | Pre-emergence herbicidal action: Amaranthus (Amaranthus): 10 | Pre-emergent Herbicidal Activity: Amaranthus (Amaranthus; Table B3, 15 g/ha): 7 | Pre-emergent Herbicidal Activity: Amaranthus (Amaranthus; Table B3, 30 g/ha): 7 | Pre-emergence herbicidal action: Digitaria (Digitaria [5]): 10 | Post-emergence herbicidal action: Stellaria (Stellaria [6]): 10 | Post-emergence herbicidal action: Ipomea (Ipomea): 10 | Post-emergence herbicidal action: Panicum (Panicum [7]): 10 | Post-emergence herbicidal action: Abutilon (Abutilon [8]): 10 | Post-emergence herbicidal action: Setaria (Setaria [9]): 10 | Post-emergence herbicidal action: Sinapis (Sinapis): 10 | Post-emergence herbicidal action: Digitaria (Digitaria [10]): 9 | Post-emergence herbicidal action: Chenopodium (Chenopodium [11]): 10 | Pre-emergent Herbicidal Activity: Corn (Corn; Table B3, 15 g/ha): 0 | Pre-emergent Herbicidal Activity: Corn (Corn; Table B3, 30 g/ha): 0 | Pre-emergent Herbicidal Activity: Soya (Soya; Table B3, 15 g/ha): 1 | Pre-emergent Herbicidal Activity: Soya (Soya; Table B3, 30 g/ha): 3
